# Test results from article PMC3930709, “Selective Activation of hTRPV1 by N-Geranyl Cyclopropylcarboxamide, an Amiloride-Insensitive Salt Taste Enhancer” (PLoS ONE, 2014).
# How the values were obtained:
# [1] = target: T1, αβγ hENaC (Homo sapiens, UniProt P37088+P51168+P51170); assay: Membrane potential assay (FMP dye) on αβγ hENaC-expressing cells; assay type: cell-based; settings: relative to buffer alone, 0.01-10 µM
# T1 construct: GFP; host or cells: HEK293T
# T1 sequence (P37088 1-669): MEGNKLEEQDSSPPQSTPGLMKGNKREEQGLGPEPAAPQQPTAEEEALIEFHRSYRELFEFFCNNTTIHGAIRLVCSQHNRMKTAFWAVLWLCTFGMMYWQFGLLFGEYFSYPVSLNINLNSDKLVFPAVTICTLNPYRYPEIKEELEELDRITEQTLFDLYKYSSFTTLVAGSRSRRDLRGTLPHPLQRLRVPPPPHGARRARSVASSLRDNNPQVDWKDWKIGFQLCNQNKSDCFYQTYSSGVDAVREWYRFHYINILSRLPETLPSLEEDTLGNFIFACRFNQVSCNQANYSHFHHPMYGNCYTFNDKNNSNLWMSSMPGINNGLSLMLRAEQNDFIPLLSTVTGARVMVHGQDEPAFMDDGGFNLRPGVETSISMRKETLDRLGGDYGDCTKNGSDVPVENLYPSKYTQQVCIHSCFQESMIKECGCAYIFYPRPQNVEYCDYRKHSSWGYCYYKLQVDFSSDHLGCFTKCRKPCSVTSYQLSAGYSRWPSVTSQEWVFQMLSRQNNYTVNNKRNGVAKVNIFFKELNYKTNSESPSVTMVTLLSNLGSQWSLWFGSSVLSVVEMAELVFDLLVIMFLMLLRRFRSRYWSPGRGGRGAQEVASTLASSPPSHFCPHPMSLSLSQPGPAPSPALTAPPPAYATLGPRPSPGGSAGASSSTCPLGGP
# T1 sequence (P51168 1-640): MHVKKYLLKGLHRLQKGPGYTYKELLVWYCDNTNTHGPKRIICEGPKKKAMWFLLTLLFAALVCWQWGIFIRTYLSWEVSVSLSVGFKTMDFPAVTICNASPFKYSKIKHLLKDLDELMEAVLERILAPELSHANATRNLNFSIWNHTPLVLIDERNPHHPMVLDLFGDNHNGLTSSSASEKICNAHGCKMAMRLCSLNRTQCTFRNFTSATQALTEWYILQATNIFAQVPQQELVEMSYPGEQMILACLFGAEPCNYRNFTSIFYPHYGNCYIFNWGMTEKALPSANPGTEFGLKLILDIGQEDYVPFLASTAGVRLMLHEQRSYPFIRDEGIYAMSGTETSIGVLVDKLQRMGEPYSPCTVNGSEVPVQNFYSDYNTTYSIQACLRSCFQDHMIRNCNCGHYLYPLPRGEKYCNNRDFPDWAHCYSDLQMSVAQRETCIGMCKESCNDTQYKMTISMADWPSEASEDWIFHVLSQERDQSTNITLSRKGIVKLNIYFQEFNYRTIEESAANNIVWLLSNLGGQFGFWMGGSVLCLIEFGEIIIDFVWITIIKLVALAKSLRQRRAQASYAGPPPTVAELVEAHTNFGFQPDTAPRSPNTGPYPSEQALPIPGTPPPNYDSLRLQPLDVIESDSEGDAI
# T1 sequence (P51170 1-649): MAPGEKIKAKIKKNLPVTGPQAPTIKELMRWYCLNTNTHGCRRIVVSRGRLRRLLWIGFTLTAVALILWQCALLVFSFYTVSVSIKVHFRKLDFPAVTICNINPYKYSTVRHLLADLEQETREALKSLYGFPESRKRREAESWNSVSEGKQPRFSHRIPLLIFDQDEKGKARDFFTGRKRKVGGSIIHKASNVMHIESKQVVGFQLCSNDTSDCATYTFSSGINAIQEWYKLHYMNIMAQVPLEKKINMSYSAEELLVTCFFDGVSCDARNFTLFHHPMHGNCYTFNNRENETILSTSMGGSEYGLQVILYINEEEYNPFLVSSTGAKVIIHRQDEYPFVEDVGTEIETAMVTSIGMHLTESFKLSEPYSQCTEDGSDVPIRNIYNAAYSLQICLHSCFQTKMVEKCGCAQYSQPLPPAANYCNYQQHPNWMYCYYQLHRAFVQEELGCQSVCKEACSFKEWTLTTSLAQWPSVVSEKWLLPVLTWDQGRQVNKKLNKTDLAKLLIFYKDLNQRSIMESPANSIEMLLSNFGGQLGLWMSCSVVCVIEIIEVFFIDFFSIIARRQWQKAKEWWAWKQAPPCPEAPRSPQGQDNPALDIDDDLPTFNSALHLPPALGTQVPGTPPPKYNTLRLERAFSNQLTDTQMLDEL
# Protocol: The α, β, and γ hENaC subunits were cloned from OriGene (Rockville, MD; GenBank accession number […] for SCNN1A, NM_000336 for SCNN1B and NM_001039 for SCNN1G). α, GFP-tagged β, and γ hENaC were cloned into a CMV promoter-based vector and expressed constitutively. The HEK293T cells were seeded onto a 35 mm dish and transfected with α, β, and γ hENaC expression plasmid using Lipofectamine 2000 (Invitrogen). Then, transfected cells were seeded onto 96-well black-wall plate for 18–26 h prior to their use in an experiment.
# hENaC-expressing cells were characterized using FLIPER Membrane Potential (FMP) Assay Kit (Molecular Devices Corporation, Sunnyvale, CA, USA). In this assay, changes in the membrane potential were quantified via fluorescence change caused by FMP dye. The hENaC-expressing cells were washed with assay buffer (containing: 130 mM NaCl, 10 mM glucose, 5 mM KCl, 2 mM CaCl2, 1.2 mM MgCl2, and 10 mM HEPES, pH adjusted to 7.4 with NaOH) and subsequently, FMP blue-dye in assay buffer was loaded into the cells at room temperature for 30 min. After dye treatment, S3969 (0.03−10 µM), an ENaC agonist, S3969+Bz (ENaC antagonist, 0.01 µM), or NGCC (0.01−10 µM) was treated to hENaC-expressing cells. The plate was assayed in a FlexStation III plate reader (Molecular devices Corporation) by excitation at 530 nm and measuring the emission at 560 nm.
# [2] = target: T2, hTRPA1 (Homo sapiens, UniProt O75762); assay: Measurement of Ca2+ influx (Fluo-4 AM, FlexStation III) in hTRPA1-expressing cells; assay type: cell-based; settings: hTRPA1-expressing Flp-In 293 cells, Hill fit
# T2 construct: expressed in transfected cells
# Protocol: Flp-In 293 cell lines stably expressing hTRPA1constructed as previously reported was a gift from the professor Takumi Misaka at University of Tokyo. The hTRPA1-expressing cells were cultured in DMEM containing 10% FBS and 0.02% hygromycin B (Invitrogen). Flp-In 293 cell lines were maintained in DMEM containing 10% FBS. All cells were incubated at 37°C in a humidified atmosphere of 5% CO2.
# The ligand-induced changes on cytosolic Ca^2+ level were monitored by a FlexStation III microplate reader (Molecular Devices). Fluo-4 AM (5 µM, Molecular Probes, Eugene, OR, USA) in assay buffer was loaded to the cells in 96-well black-wall plates for 30 min at 27°C. After dye treatment, each chemical was added to each well at 17 s and changes on intracellular Ca^2+ level were monitored by relative fluorescence units (ΔRFU, Ex = 485 nm; Em = 516 nm) for 120 s. […] The responses from at least three wells receiving the same stimulus were averaged. Plots of amplitude versus concentration were fitted using the Hill equation.
# T2 sequence (O75762 whole entry): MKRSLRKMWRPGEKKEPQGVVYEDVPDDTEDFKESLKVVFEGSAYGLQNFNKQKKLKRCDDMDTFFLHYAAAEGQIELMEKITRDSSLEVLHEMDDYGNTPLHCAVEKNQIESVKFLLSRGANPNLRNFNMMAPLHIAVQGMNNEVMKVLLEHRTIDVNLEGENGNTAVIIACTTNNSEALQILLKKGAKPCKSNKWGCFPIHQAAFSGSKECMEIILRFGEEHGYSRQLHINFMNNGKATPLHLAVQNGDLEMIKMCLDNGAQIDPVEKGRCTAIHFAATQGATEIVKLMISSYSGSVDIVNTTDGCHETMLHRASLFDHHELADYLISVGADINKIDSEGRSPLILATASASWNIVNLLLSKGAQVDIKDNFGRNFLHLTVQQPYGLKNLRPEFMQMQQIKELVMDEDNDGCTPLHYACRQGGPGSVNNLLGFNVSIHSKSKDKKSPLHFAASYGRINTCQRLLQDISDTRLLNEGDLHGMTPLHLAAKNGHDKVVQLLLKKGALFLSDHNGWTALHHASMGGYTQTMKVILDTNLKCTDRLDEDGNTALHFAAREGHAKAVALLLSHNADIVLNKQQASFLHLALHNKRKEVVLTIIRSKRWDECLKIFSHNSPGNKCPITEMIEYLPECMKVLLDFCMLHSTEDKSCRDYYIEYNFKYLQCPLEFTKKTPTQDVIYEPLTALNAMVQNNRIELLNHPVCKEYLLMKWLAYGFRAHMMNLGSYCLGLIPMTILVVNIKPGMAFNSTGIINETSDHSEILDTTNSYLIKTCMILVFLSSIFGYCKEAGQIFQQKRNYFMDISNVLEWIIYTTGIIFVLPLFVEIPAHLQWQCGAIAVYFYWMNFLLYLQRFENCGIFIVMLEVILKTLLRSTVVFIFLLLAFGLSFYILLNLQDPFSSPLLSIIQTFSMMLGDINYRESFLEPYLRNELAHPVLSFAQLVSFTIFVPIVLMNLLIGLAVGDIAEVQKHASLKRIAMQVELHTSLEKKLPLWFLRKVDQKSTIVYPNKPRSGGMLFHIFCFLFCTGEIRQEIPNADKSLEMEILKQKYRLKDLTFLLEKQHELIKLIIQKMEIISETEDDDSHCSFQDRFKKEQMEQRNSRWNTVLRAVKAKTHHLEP
smiles,measurement,setting,value
"CC(C)=CCC/C(C)=C/CNC(=O)C1CC1 [NGCC, N-geranylcyclopropylcarboxamide]",change in membrane potential in αβγ hENaC-expressing cells,[1],no significant changes in membrane potential
same,EC50,[2],83.7 µM
